Experimental data taken from US10941157B2, “Pesticidal compositions and uses thereof” (Gilead Apollo, LLC, priority 2015, dated 2021).
In brackets after ≈: the same amount, converted by molar mass. Read-outs that look alike come from different tables or passages of the source.

Assays:
Type in all cases: cell-based
[1] = tested on: Botrtyis cinerea (Bc); assay: In vitro pathogen growth inhibition assay, Bc; details: 48 h
Method in brief: (§1)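 Spores in 17% V8 liquid medium, or 1.5 mm Rs mycelial plugs in ¼ PDB, incubated with compound; final concentration checked by OD600 for precipitation. OD readings at 24 and 48 h, blank-subtracted, plus visual ratings; value is concentration giving ≥90% growth inhibition.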

[2] = tested on: Collectotrichum graminicola (Cg); assay: In vitro pathogen growth inhibition assay, Cg; details: 48 h
Method in brief: as §1

[3] = tested on: Diplodia maydis (Dm); assay: In vitro pathogen growth inhibition assay, Dm; details: Stenocarpella maydis, 48 h
Method in brief: (§2)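 Value reported is the compound concentration reaching ≥90% growth inhibition, from OD readings at 24 and 48 h after blank subtraction, confirmed visually. Inoculum was spores diluted in 17% V8 medium, except Rs, using 1.5 mm mycelial plugs in ¼ PDB; actual compound concentration corrected via OD600.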

[4] = tested on: Fusarium moniliforme (Fm); assay: In vitro pathogen growth inhibition assay, Fm; details: Fusarium verticillioides
Method in brief: as §1

[5] = tested on: Fusarium virguliforme (Fv); assay: In vitro pathogen growth inhibition assay, Fv
Method in brief: as §2

[6] = tested on: Phytophthora capsici (Pc); assay: In vitro pathogen growth inhibition assay, Pc; details: 48 h
Method in brief: as §2

[7] = tested on: Rhizoctonia solani (Rs); assay: In vitro pathogen growth inhibition assay, Rs (mycelial plugs); details: Rhizoctonia solani, 48 h
Method in brief: as §2

[8] = tested on: Septoria tritici (St); assay: In vitro pathogen growth inhibition assay, St; details: Zymoseptoria tritici, 48 h
Method in brief: as §1

[9] = ≥90% growth inhibition, 48 hours, vs 2% DMSO control, read-out: Compound Concentration (ppm) sufficient for ≥90% inhibition of Bc
[10] = ≥90% growth inhibition, 48 hours, vs 2% DMSO control, read-out: Compound Concentration (ppm) sufficient for ≥90% inhibition of Cg
[11] = ≥90% growth inhibition, 48 hours, vs 2% DMSO control, read-out: Compound Concentration (ppm) sufficient for ≥90% inhibition of Dm
[12] = ≥90% growth inhibition, 48 hours, vs 2% DMSO control, read-out: Compound Concentration (ppm) sufficient for ≥90% inhibition of Fm
[13] = ≥90% growth inhibition, 48 hours, vs 2% DMSO control, read-out: Compound Concentration (ppm) sufficient for ≥90% inhibition of Fv
[14] = ≥90% growth inhibition, 48 hours, vs 2% DMSO control, read-out: Compound Concentration (ppm) sufficient for ≥90% inhibition of Pc
[15] = ≥90% growth inhibition, mycelial plugs, 48 hours, vs 2% DMSO control, read-out: Compound Concentration (ppm) sufficient for ≥90% inhibition of Rs
[16] = ≥90% growth inhibition, 48 hours, vs 2% DMSO control, read-out: Compound Concentration (ppm) sufficient for ≥90% inhibition of St
[17] = ≥90% inhibition, 48 hours vs 2% DMSO control, read-out: Compound Concentration (ppm) sufficient for ≥90% inhibition of growth, Bc
[18] = ≥90% inhibition, 48 hours vs 2% DMSO control, read-out: Compound Concentration (ppm) sufficient for ≥90% inhibition of growth, Cg
[19] = ≥90% inhibition, 48 hours vs 2% DMSO control, read-out: Compound Concentration (ppm) sufficient for ≥90% inhibition of growth, Dm
[20] = ≥90% inhibition, 48 hours vs 2% DMSO control, read-out: Compound Concentration (ppm) sufficient for ≥90% inhibition of growth, Fm
[21] = ≥90% inhibition, 48 hours vs 2% DMSO control, read-out: Compound Concentration (ppm) sufficient for ≥90% inhibition of growth, Fv
[22] = ≥90% inhibition, 48 hours vs 2% DMSO control, read-out: Compound Concentration (ppm) sufficient for ≥90% inhibition of growth, Pc
[23] = ≥90% inhibition, mycelial plugs, 48 hours vs 2% DMSO control, read-out: Compound Concentration (ppm) sufficient for ≥90% inhibition of growth, Rs
[24] = ≥90% inhibition, 48 hours vs 2% DMSO control, read-out: Compound Concentration (ppm) sufficient for ≥90% inhibition of growth, St

SMILES | IC90 [1, 9] | IC90 [2, 10] | IC90 [3, 11] | IC90 [4, 12] | IC90 [5, 13] | IC90 [6, 14] | IC90 [7, 15] | IC90 [8, 16] | IC90 [1, 17] | IC90 [2, 18] | IC90 [3, 19] | IC90 [4, 20] | IC90 [5, 21] | IC90 [6, 22] | IC90 [7, 23] | IC90 [8, 24] | further results
COc1ccccc1[C@H](Cn1c(=O)n(C(C)(C)C(=O)NC(C)C)c(=O)c2c(C)c(-n3nccn3)sc21)O[C@H]1CC[C@@H](O)CC1 [Compound I-265] | 0.4 µg/mL (≈ 0.64 µM) | 2 µg/mL (≈ 3.2 µM) | 2 µg/mL (≈ 3.2 µM) | 0.08 µg/mL (≈ 0.128 µM) | 0.4 µg/mL (≈ 0.64 µM) | ≥ 50 µg/mL | 0.08 µg/mL (≈ 0.128 µM) | ≥ 50 µg/mL | – | – | – | – | – | – | – | – | –
COc1ccccc1[C@H](Cn1c(=O)n(C(C)(C)C(=O)NC2CCC2)c(=O)c2c(C)c(-n3nccn3)sc21)OC1CCOCC1 [Compound I-042] | – | – | – | – | – | – | – | – | 0.4 µg/mL (≈ 0.642 µM) | ≥ 0.4 µg/mL | ≥ 0.4 µg/mL | 0.08 µg/mL (≈ 0.128 µM) | 0.4 µg/mL (≈ 0.642 µM) | ≥ 10 µg/mL | 0.08 µg/mL (≈ 0.128 µM) | ≥ 10 µg/mL | –
COc1ccc(F)cc1[C@H](Cn1c(=O)n(C(C)C(=O)N2CCCC2)c(=O)c2c(C)c(-n3cccn3)sc21)OC(C)C (some centres unmarked) [Compound I-062] | – | – | – | – | – | – | – | – | 0.4 µg/mL (≈ 0.685 µM) | 0.4 µg/mL (≈ 0.685 µM) | 1.2 µg/mL (≈ 2.06 µM) | 0.08 µg/mL (≈ 0.137 µM) | 0.4 µg/mL (≈ 0.685 µM) | 50 µg/mL (≈ 85.7 µM) | 2 µg/mL (≈ 3.43 µM) | 50 µg/mL (≈ 85.7 µM) | –
CC(=O)Oc1ccccc1[C@H](Cn1c(=O)n(C(C)(C)C(=O)NC(C)C)c(=O)c2c(C)c(-n3nccn3)sc21)OCCC#N [Compound I-304] | 2 µg/mL (≈ 3.29 µM) | 2 µg/mL (≈ 3.29 µM) | ≥ 10 µg/mL | 0.08 µg/mL (≈ 0.132 µM) | 0.4 µg/mL (≈ 0.658 µM) | > 50 µg/mL | 2 µg/mL (≈ 3.29 µM) | > 50 µg/mL | – | – | – | – | – | – | – | – | –
COCCCO[C@@H](Cn1c(=O)n(C(C)(C)C(=O)N2CCCC2)c(=O)c2c(C)c(-n3nccn3)sc21)c1cc(F)ccc1OC [Compound I-083] | – | – | – | – | – | – | – | – | 2 µg/mL (≈ 3.18 µM) | 2 µg/mL (≈ 3.18 µM) | 2 µg/mL (≈ 3.18 µM) | 0.08 µg/mL (≈ 0.127 µM) | 0.4 µg/mL (≈ 0.636 µM) | > 50 µg/mL | 0.4 µg/mL (≈ 0.636 µM) | ≥ 50 µg/mL | –
Cc1c(-n2cccn2)sc2c1c(=O)n(C(C)(C)C(=O)NC(C)C)c(=O)n2CCc1cc(F)ccc1OCCC#N [Compound I-336] | – | – | – | – | – | – | – | – | – | – | – | – | – | – | – | – | IC90 ([1]; concentration sufficient to ≥90% inhibition of growth, 48 hours vs 2% DMSO control, read-out: Compound Concentration (ppm) for ≥90% inhibition, Bc): 50 µg/mL (≈ 88.2 µM); IC90 ([2]; concentration sufficient to ≥90% inhibition of growth, 48 hours vs 2% DMSO control, read-out: Compound Concentration (ppm) for ≥90% inhibition, Cg): > 50 µg/mL; IC90 ([3]; concentration sufficient to ≥90% inhibition of growth, 48 hours vs 2% DMSO control, read-out: Compound Concentration (ppm) for ≥90% inhibition, Dm): > 50 µg/mL; IC90 ([4]; concentration sufficient to ≥90% inhibition of growth, 48 hours vs 2% DMSO control, read-out: Compound Concentration (ppm) for ≥90% inhibition, Fm): 10 µg/mL (≈ 17.6 µM); IC90 ([5]; concentration sufficient to ≥90% inhibition of growth, 48 hours vs 2% DMSO control, read-out: Compound Concentration (ppm) for ≥90% inhibition, Fv): 10 µg/mL (≈ 17.6 µM); IC90 ([6]; concentration sufficient to ≥90% inhibition of growth, 48 hours vs 2% DMSO control, read-out: Compound Concentration (ppm) for ≥90% inhibition, Pc): > 50 µg/mL; IC90 ([7]; concentration sufficient to ≥90% inhibition of growth, 48 hours vs 2% DMSO control, read-out: Compound Concentration (ppm) for ≥90% inhibition, Rs): > 50 µg/mL; IC90 ([8]; concentration sufficient to ≥90% inhibition of growth, 48 hours vs 2% DMSO control, read-out: Compound Concentration (ppm) for ≥90% inhibition, St): > 50 µg/mL
CCOC(=O)c1sc2c(c1C)c(=O)n(C(C)(C)C(=O)NC(C)C)c(=O)n2CCc1cc(F)ccc1OC [Compound I-298] | 2 µg/mL (≈ 3.75 µM) | 10 µg/mL (≈ 18.7 µM) | ≥ 10 µg/mL | 2 µg/mL (≈ 3.75 µM) | 2 µg/mL (≈ 3.75 µM) | > 50 µg/mL | > 50 µg/mL | > 50 µg/mL | – | – | – | – | – | – | – | – | –
CCNC(=O)C(C)(C)n1c(=O)c2c(C)c(-n3nccn3)sc2n(C[C@H](OC2CCOCC2)c2ccccc2OC)c1=O [Compound I-032] | – | – | – | – | – | – | – | – | 0.4 µg/mL (≈ 0.67 µM) | ≥ 2 µg/mL | 10 µg/mL (≈ 16.8 µM) | 0.08 µg/mL (≈ 0.134 µM) | 10 µg/mL (≈ 16.8 µM) | > 50 µg/mL | 10 µg/mL (≈ 16.8 µM) | > 50 µg/mL | –
COc1ccc(F)cc1[C@H](Cn1c(=O)n(C(C)(C)C(=O)N2CCCCC2)c(=O)c2c(C)c(-n3nccn3)sc21)OC1CCC(=O)CC1 [Compound I-052] | – | – | – | – | – | – | – | – | 0.4 µg/mL (≈ 0.6 µM) | ≥ 0.4 µg/mL | 2 µg/mL (≈ 3 µM) | 0.08 µg/mL (≈ 0.12 µM) | 0.4 µg/mL (≈ 0.6 µM) | > 50 µg/mL | 2 µg/mL (≈ 3 µM) | > 50 µg/mL | –
COc1ccc(F)cc1[C@H](Cn1c(=O)n(C(C)(C)C(=O)N2CCCCC2)c(=O)c2c(C)c(-n3cccn3)sc21)OC(C)C [Compound I-002] | – | – | – | – | – | – | – | – | 0.4 µg/mL (≈ 0.654 µM) | 2 µg/mL (≈ 3.27 µM) | 0.4 µg/mL (≈ 0.654 µM) | 0.08 µg/mL (≈ 0.131 µM) | 0.4 µg/mL (≈ 0.654 µM) | > 50 µg/mL | 0.4 µg/mL (≈ 0.654 µM) | > 10 µg/mL | –
